Patent publication US20070129357A1, “Novel crystals of fluorobenzamide derivative” (priority 2003, published 2007)
Entries after “also recorded” stand apart in the source; their conditions may differ.

Experiments:
If current = conditions: stated as known from WO 00/75133; cited from earlier work
[1] = Hygroscopicity of the crystals (FIG. 5 and FIG. 6); type: physicochemical; conditions: crystal forms of compound A compared, FIG. 5 (α-type, Example 3) and FIG. 6 (β-type, Example 2); monophosphate

Row | SMILES | inhibitory action for If current (If current) | hygroscopicity [1] | melting point
1 | COc1cc2c(cc1OC)CN(C(=O)[C@@H]1CCCN(CCNC(=O)c3ccc(F)cc3)C1)CC2.O=P(O)(O)O [compound A, (−)-N-{2-[(R)-3-(6,7-dimethoxy-1,2,3,4-tetrahydroisoquinoline-2-carbonyl)piperidino]ethyl}-4-fluorobenzamide monophosphate] | inhibitory action for If current |  | 
2 | COc1cc2c(cc1OC)CN(C(=O)[C@@H]1CCCN(CCNC(=O)c3ccc(F)cc3)C1)CC2.O=P(O)(O)O [α-type crystal, (−)-N-{2-[(R)-3-(6,7-dimethoxy-1,2,3,4-tetrahydroisoquinoline-2-carbonyl)piperidino]ethyl}-4-fluorobenzamide monophosphate] |  | particularly good hygroscopicity; also recorded: superior to the β-type crystal in terms of hygroscopicity | 203.8 to 204.7 °C
3 | COc1cc2c(cc1OC)CN(C(=O)[C@@H]1CCCN(CCNC(=O)c3ccc(F)cc3)C1)CC2.O=P(O)(O)O [β-type crystal, (−)-N-{2-[(R)-3-(6,7-dimethoxy-1,2,3,4-tetrahydroisoquinoline-2-carbonyl)piperidino]ethyl}-4-fluorobenzamide monophosphate] |  |  | 195.5 to 196.3 °C
